Measured values from PubChem BioAssay AID248 (DTP/NCI, 2004).
Where “and” joins values, the source holds several entries; their conditions need not be identical. Equal values may be shown once. Toxic doses and inconclusive results are not listed. Rule as the data show it: active = T/C of 150% or more; inactive = T/C below 125%.

Test system: L1210 leukemia ip in BDF1 mice, survival T/C
Test: NCI In Vivo Anticancer Drug Screen. Data for tumor model L1210 Leukemia (intraperitoneal) in B6D2F1 (BDF1) mice
Conditions: endpoint: mean survival time, higher = longer survival
Summary of the method: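 Mice bearing the transplanted tumor received compound or vehicle. Survival of the treated group was divided by that of the vehicle-treated control group to give the ratio.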

[1] = dose: 100.0 mg/kg/injection, schedule: Q01DX001 (ip), vehicle: Klucel (hydroxypropylcellulose) (HPC)
[2] = dose: 25.0 mg/kg/injection, schedule: Q01DX001 (ip), vehicle: saline
[3] = dose: 100.0 mg/kg/injection, schedule: Q04DX002 (ip), vehicle: Klucel (hydroxypropylcellulose) (HPC)
[4] = dose: 50.0 mg/kg/injection, schedule: Q01DX001 (ip), vehicle: saline
[5] = dose: 100.0 mg/kg/injection, schedule: Q01DX001 (ip), vehicle: saline
[6] = dose: 50.0 mg/kg/injection, schedule: Q01DX009 (ip), vehicle: saline
[7] = dose: 200.0 mg/kg/injection, schedule: Q01DX009 (ip), vehicle: saline

Measured: T/C

CNc1ccc(N=Nc2ccc3ncccc3c2)cc1
inactive: dose: 3.8 mg/kg/injection, schedule: Q01DX009 (ip), vehicle: saline 98 % of control | dose: 6.7 mg/kg/injection, schedule: Q01DX Z (ip), vehicle: carboxymethylcellulose (CMC) 98 % of control | dose: 7.5 mg/kg/injection, schedule: Q01DX009 (ip), vehicle: saline 102 % of control | dose: 10.0 mg/kg/injection, schedule: Q01DX Z (ip), vehicle: carboxymethylcellulose (CMC) 92 % of control | dose: 15.0 mg/kg/injection, schedule: Q01DX009 (ip), vehicle: saline 98 % of control | dose: 15.0 mg/kg/injection, schedule: Q01DX Z (ip), vehicle: carboxymethylcellulose (CMC) 92 % of control | dose: 30.0 mg/kg/injection, schedule: Q01DX009 (ip), vehicle: saline 89 % of control

CCOC(=O)C(Cl)c1ccc(OC)cc1 (centres undefined)
inactive: dose: 100.0 mg/kg/injection, schedule: Q01DX009 (ip), vehicle: other 111 % of control | dose: 200.0 mg/kg/injection, schedule: Q01DX009 (ip), vehicle: other 98 % of control | dose: 400.0 mg/kg/injection, schedule: Q01DX009 (ip), vehicle: other 102 % of control

COc1ccc(/C=N/NC(=O)CCCCCCCCC(=O)N/N=C/c2ccc(OC)c(OC)c2)cc1OC
inactive: dose: 25.0 mg/kg/injection, schedule: Q01DX009 (ip), vehicle: saline with Tween-80 98 % of control and 105 % of control | dose: 50.0 mg/kg/injection, schedule: Q01DX009 (ip), vehicle: saline with Tween-80 97 % of control and 101 % of control | dose: 100.0 mg/kg/injection, schedule: Q01DX001 (ip), vehicle: saline with Tween-80 95 % of control | dose: 100.0 mg/kg/injection, schedule: Q04DX002 (ip), vehicle: saline 90 % of control | dose: 100.0 mg/kg/injection, schedule: Q04DX003 (ip), vehicle: saline with Tween-80 94 % of control | dose: 200.0 mg/kg/injection, schedule: Q01DX001 (ip), vehicle: saline with Tween-80 114 % of control | dose: 200.0 mg/kg/injection, schedule: Q04DX002 (ip), vehicle: saline 97 % of control and 90 % of control | dose: 200.0 mg/kg/injection, schedule: Q04DX003 (ip), vehicle: saline with Tween-80 109 % of control | dose: 400.0 mg/kg/injection, schedule: Q04DX002 (ip), vehicle: saline 101 % of control and 103 % of control | dose: 400.0 mg/kg/injection, schedule: Q04DX003 (ip), vehicle: saline with Tween-80 96 % of control

CCC(=O)C1CCCCN1 (centres undefined)
inactive: dose: 25.0 mg/kg/injection, schedule: Q04DX002 (ip), vehicle: saline 94 % of control | dose: 50.0 mg/kg/injection, schedule: Q04DX002 (ip), vehicle: saline 94 % of control

Cc1ccc(-n2c(O)c(N=Nc3ccccc3C)c(=O)n(-c3ccccc3)c2=S)cc1
inactive: [1] 94 % of control | dose: 200.0 mg/kg/injection, schedule: Q01DX001 (ip), vehicle: Klucel (hydroxypropylcellulose) (HPC) 104 % of control | dose: 400.0 mg/kg/injection, schedule: Q01DX001 (ip), vehicle: Klucel (hydroxypropylcellulose) (HPC) 99 % of control

CC(C)(C)c1cc([N+](C)(C)C)cc(C(C)(C)C)n1
inactive: dose: 6.25 mg/kg/injection, schedule: Q01DX001 (ip), vehicle: saline 97 % of control | dose: 12.5 mg/kg/injection, schedule: Q01DX001 (ip), vehicle: saline 112 % of control | [2] 105 % of control

CCOC(=O)/C(C#N)=C/c1cccn1Cc1cc(OC)c(OC)cc1[N+](=O)[O-]
inactive: dose: 25.0 mg/kg/injection, schedule: Q04DX002 (ip), vehicle: Klucel (hydroxypropylcellulose) (HPC) 110 % of control | dose: 50.0 mg/kg/injection, schedule: Q04DX002 (ip), vehicle: Klucel (hydroxypropylcellulose) (HPC) 89 % of control | [3] 96 % of control

CCN(CC)c1ccc(SSc2ccc(N(CC)CC)cc2)cc1
inactive: [2] 105 % of control | [4] 100 % of control | [5] 100 % of control

COc1cccc(/C=N\N=C\c2cccc(OC)c2OC)c1OC
inactive: [6] 120 % of control | [7] 110 % of control

CC1(C)C(=NN)C(C)(C)C1O (centres undefined)
inactive: dose: 75.0 mg/kg/injection, schedule: Q01DX001 (ip), vehicle: saline 101 % of control | dose: 150.0 mg/kg/injection, schedule: Q01DX001 (ip), vehicle: saline 104 % of control | dose: 300.0 mg/kg/injection, schedule: Q01DX001 (ip), vehicle: saline 96 % of control

CCOC(=O)NCCN(C)C
inactive: [6] 105 % of control | dose: 100.0 mg/kg/injection, schedule: Q01DX009 (ip), vehicle: saline 102 % of control | dose: 100.0 mg/kg/injection, schedule: Q04DX003 (ip), vehicle: saline 99 % of control | [7] 108 % of control | dose: 200.0 mg/kg/injection, schedule: Q04DX003 (ip), vehicle: saline 102 % of control

CCOC(=O)C1OC12c1cccc3cccc(c13)C21OC1C(=O)OCC (centres undefined)
inactive: dose: 100.0 mg/kg/injection, schedule: Q01DX009 (ip), vehicle: saline with Tween-80 92 % of control | dose: 200.0 mg/kg/injection, schedule: Q01DX009 (ip), vehicle: saline with Tween-80 90 % of control | dose: 400.0 mg/kg/injection, schedule: Q01DX009 (ip), vehicle: saline with Tween-80 98 % of control

COC(=O)C12C(=CCP1(C)=O)C(c1ccccc1)=NN2c1ccccc1 (centres undefined)
inactive: dose: 12.5 mg/kg/injection, schedule: Q04DX002 (ip), vehicle: saline with Tween-80 92 % of control | dose: 25.0 mg/kg/injection, schedule: Q04DX002 (ip), vehicle: saline with Tween-80 95 % of control

N=C(N)c1ccc(OCCCCOc2ccc(NC(=O)Nc3cccc(S(=O)(=O)F)c3)cc2)cc1
inactive: dose: 25.0 mg/kg/injection, schedule: Q01DX001 (ip), vehicle: Klucel (hydroxypropylcellulose) (HPC) 97 % of control | dose: 50.0 mg/kg/injection, schedule: Q01DX001 (ip), vehicle: Klucel (hydroxypropylcellulose) (HPC) 95 % of control | [1] 89 % of control

CCN1C(=O)C2C3C=CC(C3)C2C1=O (centres undefined)
inactive: dose: 25.0 mg/kg/injection, schedule: Q04DX003 (ip), vehicle: saline with Tween-80 97 % of control | dose: 50.0 mg/kg/injection, schedule: Q04DX003 (ip), vehicle: saline with Tween-80 104 % of control

CC(C)(C(N)=O)c1ccccc1
inactive: [4] 106 % of control | [5] 103 % of control | dose: 200.0 mg/kg/injection, schedule: Q01DX001 (ip), vehicle: saline 103 % of control | dose: 400.0 mg/kg/injection, schedule: Q01DX001 (ip), vehicle: saline 100 % of control

O=C(Nc1cccc(Cl)c1)Nc1cc(C(F)(F)F)ccc1Cl
inactive: dose: 50.0 mg/kg/injection, schedule: Q01DX001 (ip), vehicle: carboxymethylcellulose (CMC) 96 % of control | dose: 100.0 mg/kg/injection, schedule: Q01DX001 (ip), vehicle: carboxymethylcellulose (CMC) 100 % of control | dose: 200.0 mg/kg/injection, schedule: Q01DX001 (ip), vehicle: carboxymethylcellulose (CMC) 91 % of control | dose: 400.0 mg/kg/injection, schedule: Q01DX001 (ip), vehicle: carboxymethylcellulose (CMC) 100 % of control

O=[N+]([O-])c1ccc2c(c1)-c1ccccc1C2O (centres undefined)
inactive: dose: 100.0 mg/kg/injection, schedule: Q01DX005 (ip), vehicle: Klucel (hydroxypropylcellulose) (HPC) 105 % of control | [3] 107 % of control | dose: 200.0 mg/kg/injection, schedule: Q01DX005 (ip), vehicle: Klucel (hydroxypropylcellulose) (HPC) 94 % of control | dose: 200.0 mg/kg/injection, schedule: Q04DX002 (ip), vehicle: Klucel (hydroxypropylcellulose) (HPC) 93 % of control | dose: 400.0 mg/kg/injection, schedule: Q01DX005 (ip), vehicle: Klucel (hydroxypropylcellulose) (HPC) 91 % of control | dose: 400.0 mg/kg/injection, schedule: Q04DX002 (ip), vehicle: Klucel (hydroxypropylcellulose) (HPC) 104 % of control

CCOC(=O)NCC(CCN1CCCCC1)(CCN1CCCCC1)c1cccc2ccccc12
inactive: dose: 100.0 mg/kg/injection, schedule: Q04DX003 (ip), vehicle: Klucel (hydroxypropylcellulose) (HPC) 107 % of control
